{
  "source": "patent US8871465B2",
  "about": "(priority 2009, dated 2014)",
  "key": {"[1]": {"settings": "as indicated in U.S. Pat. No. 6,558,917; cited from earlier work"}, "[2]": {"assay": "Stability of the substrate in aqueous medium", "type": "physicochemical", "settings": "medium at pH 7.2; a pH of 6.8 is required"}, "[3]": {"test_system": "other Gram-positive bacteria", "settings": "pH 7.2"}, "[4]": {"test_system": "ATCC 10876 (Bacillus cereus group)", "settings": "pH 7.2"}, "[5]": {"test_system": "ATCC 6463 (Bacillus cereus group)", "settings": "pH 7.2"}, "Bacillus cereus": {"test_system": "Bacillus cereus", "settings": "pH 7.2"}, "[6]": {"test_system": "Bacillus pumilus ATCC 7061", "settings": "pH 7.2"}, "[7]": {"test_system": "ATCC 6464 (Bacillus cereus group)", "settings": "pH 7.2"}, "[8]": {"test_system": "Bacillus lentus ATCC 10840", "settings": "pH 7.2"}, "[9]": {"test_system": "Bacillus circulans ATCC 4513", "settings": "pH 7.2"}, "[10]": {"test_system": "0240015 (Bacillus cereus group)", "settings": "pH 7.2"}, "[11]": {"test_system": "ATCC 33019 (Bacillus cereus group)", "settings": "pH 7.2"}, "[12]": {"test_system": "Bacillus sphaericus 8710054", "settings": "pH 7.2"}, "[13]": {"test_system": "Bacillus cereus ATCC 7064"}, "[14]": {"test_system": "Bacillus megaterium ATCC 14581", "settings": "pH 7.2"}, "[15]": {"test_system": "L. monocytogenes ATCC 19118", "settings": "37° C., pH 7.2, 1 000 CFU, detection threshold 30 000 RFU", "method": "(§1) Various pure strains of the Bacillus genus and also other Gram-positive bacteria were tested in a microplate in the presence of the medium below. A reading of the appearance of the fluorescence in each of the various wells of the microplate was then performed at different times over the course of 44 h of incubation at 37° C.\n(§2) The medium having the following composition was used (composition in g/l), pH 7.2:\n(§3) The wells of the microplate are inoculated with 10 colony-forming units (CFU) of bacteria of the Bacillus cereus group and 1 000 CFU for the other Bacillus that are non cereus and other Gram-positive bacteria. The microplate is then incubated for 44 h at 37° C. in a microplate reader in order to evaluate the PC-PLC activity of these various strains in the form of kinetics of hydrolysis of the substrate 4 MU-CP, i.e to detect and measure the appearance of fluorescence. The detection threshold of the measuring apparatus is fixed at 30 000 RFU (relative fluorescence unit)."}, "L. ivanovii 0002147": {"test_system": "L. ivanovii 0002147", "settings": "37° C., pH 7.2, 1 000 CFU, detection threshold 30 000 RFU", "method": "as §1, §2, §3"}, "S. aureus 8407603": {"test_system": "S. aureus 8407603", "settings": "37° C., pH 7.2, 1 000 CFU, detection threshold 30 000 RFU", "method": "as §1, §2, §3"}, "L. monocytogenes 0301902": {"test_system": "L. monocytogenes 0301902", "settings": "37° C., pH 7.2, 1 000 CFU, detection threshold 30 000 RFU", "method": "as §1, §2, §3"}, "S. aureus 25923": {"test_system": "S. aureus 25923", "settings": "37° C., pH 7.2, 1 000 CFU, detection threshold 30 000 RFU", "method": "as §1, §2, §3"}, "L. ivanovii ATCC 49954": {"test_system": "L. ivanovii ATCC 49954", "settings": "37° C., pH 7.2, 1 000 CFU, detection threshold 30 000 RFU", "method": "as §1, §2, §3"}, "[16]": {"test_system": "Bacillus subtilis ATCC 6051", "settings": "37° C., pH 7.2, 1 000 CFU, detection threshold 30 000 RFU", "method": "as §1, §2, §3"}, "[17]": {"test_system": "Bacillus cereus ATCC 7064", "settings": "pH 7.2"}, "[18]": {"test_system": "NCTC 11145 (Bacillus cereus group)", "settings": "pH 7.2"}, "[19]": {"test_system": "ATCC 9139 (Bacillus cereus group)", "settings": "pH 7.2"}, "[20]": {"test_system": "PaeniBacillus polymyxa ATCC 21551", "settings": "pH 7.2"}, "[21]": {"test_system": "Bacillus licheniformis 93.08.043", "settings": "pH 7.2"}},
  "data": [
    {"smiles": "Cc1cc(=O)oc2cc(OP(=O)(O)OC3C(O)C(O)C(O)C(O)C3O)ccc12", "note": "(stereo not shown) [4 MU-MIP, 4-methylumbelliferyl myoinositol-1-phosphate]", "values": [
      {"measurement": "Stability in an aqueous medium", "setting": "[1]", "result": "reduced stability"},
      {"measurement": "Stability of the substrate at pH 7.2", "setting": "[2]", "result": "instability of the substrate being too great"}
    ]},
    {"smiles": "Cc1cc(=O)oc2cc(OP(=O)([O-])OCC[N+](C)(C)C)ccc12", "note": "[4 MU-PC, 4-methylumbelliferyl choline phosphate]", "values": [
      {"measurement": "Incubation time to positive signal (PC-PLC activity)", "setting": "[3]", "result": "> 40", "unit": "h"},
      {"measurement": "Levels of fluorescence in 24 h", "setting": "[4]", "result": ">60000", "unit": "RFU"},
      {"measurement": "Levels of fluorescence in 40 h", "setting": "[4]", "result": ">60000", "unit": "RFU"},
      {"measurement": "Levels of fluorescence in 24 h", "setting": "[5]", "result": ">60000", "unit": "RFU"},
      {"measurement": "Levels of fluorescence in 40 h", "setting": "[5]", "result": ">60000", "unit": "RFU"},
      {"measurement": "Incubation time to positive signal (PC-PLC activity)", "setting": "Bacillus cereus", "result": "≥ 15", "unit": "h"},
      {"measurement": "Levels of fluorescence in 24 h", "setting": "[6]", "result": 5000, "unit": "RFU"},
      {"measurement": "Levels of fluorescence in 40 h", "setting": "[6]", "result": 10000, "unit": "RFU"},
      {"measurement": "Levels of fluorescence in 24 h", "setting": "[7]", "result": ">60000", "unit": "RFU"},
      {"measurement": "Levels of fluorescence in 40 h", "setting": "[7]", "result": ">60000", "unit": "RFU"},
      {"measurement": "Levels of fluorescence in 24 h", "setting": "[8]", "result": 5000, "unit": "RFU"},
      {"measurement": "Levels of fluorescence in 40 h", "setting": "[8]", "result": 10000, "unit": "RFU"},
      {"measurement": "Levels of fluorescence in 24 h", "setting": "[9]", "result": 10000, "unit": "RFU"},
      {"measurement": "Levels of fluorescence in 40 h", "setting": "[9]", "result": 20000, "unit": "RFU"},
      {"measurement": "Levels of fluorescence in 24 h", "setting": "[10]", "result": ">60000", "unit": "RFU"},
      {"measurement": "Levels of fluorescence in 40 h", "setting": "[10]", "result": ">60000", "unit": "RFU"},
      {"measurement": "Levels of fluorescence in 24 h", "setting": "[11]", "result": ">60000", "unit": "RFU"},
      {"measurement": "Levels of fluorescence in 40 h", "setting": "[11]", "result": ">60000", "unit": "RFU"},
      {"measurement": "Levels of fluorescence in 24 h", "setting": "[12]", "result": 20000, "unit": "RFU"},
      {"measurement": "Levels of fluorescence in 40 h", "setting": "[12]", "result": ">60000", "unit": "RFU"},
      {"measurement": "Reduction of the detection time at pH 7.2 compared with pH 6.8", "setting": "[13]", "result": 10, "unit": "h"},
      {"measurement": "Levels of fluorescence in 24 h", "setting": "[14]", "result": 5000, "unit": "RFU"},
      {"measurement": "Levels of fluorescence in 40 h", "setting": "[14]", "result": 5000, "unit": "RFU"},
      {"measurement": "Levels of fluorescence in 24 h", "setting": "[15]; 24 h", "result": 4000, "unit": "RFU"},
      {"measurement": "Levels of fluorescence in 40 h", "setting": "[15]; 40 h", "result": 15000, "unit": "RFU"},
      {"measurement": "Levels of fluorescence in 24 h", "setting": "L. ivanovii 0002147; 24 h", "result": 2000, "unit": "RFU"},
      {"measurement": "Levels of fluorescence in 40 h", "setting": "L. ivanovii 0002147; 40 h", "result": 10000, "unit": "RFU"},
      {"measurement": "Levels of fluorescence in 24 h", "setting": "S. aureus 8407603; 24 h", "result": 2000, "unit": "RFU"},
      {"measurement": "Levels of fluorescence in 40 h", "setting": "S. aureus 8407603; 40 h", "result": 2000, "unit": "RFU"},
      {"measurement": "Levels of fluorescence in 24 h", "setting": "L. monocytogenes 0301902; 24 h", "result": 5000, "unit": "RFU"},
      {"measurement": "Levels of fluorescence in 40 h", "setting": "L. monocytogenes 0301902; 40 h", "result": 10000, "unit": "RFU"},
      {"measurement": "Levels of fluorescence in 24 h", "setting": "S. aureus 25923; 24 h", "result": 2000, "unit": "RFU"},
      {"measurement": "Levels of fluorescence in 40 h", "setting": "S. aureus 25923; 40 h", "result": 2000, "unit": "RFU"},
      {"measurement": "Levels of fluorescence in 24 h", "setting": "L. ivanovii ATCC 49954; 24 h", "result": 2000, "unit": "RFU"},
      {"measurement": "Levels of fluorescence in 40 h", "setting": "L. ivanovii ATCC 49954; 40 h", "result": 10000, "unit": "RFU"},
      {"measurement": "Levels of fluorescence in 24 h", "setting": "[16]; 24 h", "result": 10000, "unit": "RFU"},
      {"measurement": "Levels of fluorescence in 40 h", "setting": "[16]; 40 h", "result": 20000, "unit": "RFU"},
      {"measurement": "Levels of fluorescence in 24 h", "setting": "[17]", "result": ">60000", "unit": "RFU"},
      {"measurement": "Levels of fluorescence in 40 h", "setting": "[17]", "result": ">60000", "unit": "RFU"},
      {"measurement": "Levels of fluorescence in 24 h", "setting": "[18]", "result": ">60000", "unit": "RFU"},
      {"measurement": "Levels of fluorescence in 40 h", "setting": "[18]", "result": ">60000", "unit": "RFU"},
      {"measurement": "Levels of fluorescence in 24 h", "setting": "[19]", "result": ">60000", "unit": "RFU"},
      {"measurement": "Levels of fluorescence in 40 h", "setting": "[19]", "result": ">60000", "unit": "RFU"},
      {"measurement": "Levels of fluorescence in 24 h", "setting": "[20]", "result": 5000, "unit": "RFU"},
      {"measurement": "Levels of fluorescence in 40 h", "setting": "[20]", "result": 10000, "unit": "RFU"},
      {"measurement": "Levels of fluorescence in 24 h", "setting": "[21]", "result": 2000, "unit": "RFU"},
      {"measurement": "Levels of fluorescence in 40 h", "setting": "[21]", "result": 2000, "unit": "RFU"}
    ]}
  ]
}
